Laboratory results taken from patent publication US8017321B2, “Gefitinib sensitivity-related gene expression and products and methods related thereto” (The Regents of the University of Colorado, A Body Corporate, priority 2005, dated 2011).

Key:
A549 NSCLC xenografts = test: Athymic nude mice bearing human NSCLC xenografts (FIG. 5); format: in vivo
Excerpt: FIG. 5 is a line graph showing the effects of gefitinib on A549 NSCLC xenografts.

NSCLC = conditions: chemo-refractory advanced stage NSCLC, phase II clinical trials; cited from earlier work

SMILES: COc1cc2ncnc(Nc3ccc(F)c(Cl)c3)c2cc1OCCCN1CCOCC1 [ZD 1839, gefitinib]
- tumor growth of NSCLC xenografts after treatment (A549 NSCLC xenografts; listed as ZD1839): Growth delay was evident
- tumor growth of NSCLC xenografts after treatment (A549 NSCLC xenografts; listed as gefitinib): inhibitory effect
- patients responding to treatment (NSCLC): 11-20%
